pIC50: −log10 of the molar value. Values after ≈ are worked out from the molar mass of the structure shown. Active and inactive are the calls of the source. No cut-off for these calls is given here.
Tests used:
[1] = tested on: Klebsiella pneumoniae; experiment: Synergistic antibacterial activity against multidrug resistant Klebsiella pneumoniae ATCC 2782 assessed as bacterial growth inhibition in presence of ceftazidime; format: functional, organism-based
[2] = tested on: Escherichia coli; experiment: Synergistic antibacterial activity against multidrug resistant Escherichia coli ATCC 2774 assessed as bacterial growth inhibition in presence of ceftazidime; format: functional, organism-based
[3] = tested on: Escherichia coli; experiment: Antibacterial activity against multidrug resistant Escherichia coli ATCC 2774 assessed as bacterial growth inhibition; format: functional
[4] = tested on: Staphylococcus aureus; experiment: Antibacterial activity against multidrug resistant Staphylococcus aureus ATCC 43300 assessed as bacterial growth inhibition; format: functional
[5] = biological target: T1, Metallo-beta-lactamase type 2 (Bacillus cereus, UniProt P14488); experiment: Inhibition of Bacillus cereus beta-lactamase II
T1 sequence (P14488 whole entry): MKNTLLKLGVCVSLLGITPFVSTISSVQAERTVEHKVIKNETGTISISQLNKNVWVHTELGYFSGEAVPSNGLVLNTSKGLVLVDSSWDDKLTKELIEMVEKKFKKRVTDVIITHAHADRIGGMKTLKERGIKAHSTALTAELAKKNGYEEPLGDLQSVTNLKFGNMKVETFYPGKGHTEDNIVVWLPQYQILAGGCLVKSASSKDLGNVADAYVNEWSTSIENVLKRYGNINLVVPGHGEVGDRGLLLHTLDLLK

[6] = tested on: Staphylococcus aureus; experiment: Antibacterial activity against multidrug resistant Staphylococcus aureus ATCC 25923 assessed as bacterial growth inhibition; format: functional
[7] = tested on: Escherichia coli; experiment: Synergistic antibacterial activity against multidrug resistant Escherichia coli ATCC 25922 assessed as bacterial growth inhibition in presence of ceftazidime; format: functional, organism-based
[8] = Hemolytic activity in human RBC assessed as hemolysis at 512 ug/ml; format: toxicity, cell-based, Erythrocyte; settings: red blood cells (RBC), at 512 µg/mL, read-out: Activity
[9] = tested on: Escherichia coli; experiment: Antibacterial activity against multidrug resistant Escherichia coli ATCC 25922 assessed as bacterial growth inhibition; format: functional
[10] = tested on: Klebsiella pneumoniae; experiment: Antibacterial activity against multidrug resistant Klebsiella pneumoniae ATCC 2782 assessed as bacterial growth inhibition; format: functional
[11] = tested on: Acinetobacter baumannii; experiment: Antibacterial activity against multidrug resistant Acinetobacter baumannii ATCC 2803 assessed as bacterial growth inhibition; format: functional
[12] = tested on: Klebsiella pneumoniae; experiment: Synergistic antibacterial activity against multidrug resistant Klebsiella pneumoniae ATCC 2146 assessed as bacterial growth inhibition in presence of ceftazidime; format: functional, organism-based
[13] = tested on: Klebsiella pneumoniae; experiment: Antibacterial activity against multidrug resistant Klebsiella pneumoniae ATCC 2146 assessed as bacterial growth inhibition; format: functional

| Structure (SMILES) | Activity [1] | Activity [2] | MIC [3] [µg/mL] | MIC [4] [µg/mL] | pIC50 [5] | MIC [6] [µg/mL] | Activity [7] | hemolysis at 512 ug/ml [8] [%] | MIC [9] [µg/mL] | MIC [10] [µg/mL] | MIC [11] [µg/mL] | Activity [12] | MIC [13] [µg/mL] |
| --- | --- | --- | --- | --- | --- | --- | --- | --- | --- | --- | --- | --- | --- |
| CC(C)[C@H](NC(=O)[C@@H]1CC[C@@H]2CN1C(=O)N2OS(=O)(=O)O)C(=O)NNC(=O)c1cn(C2CC2)c2cc(N3CCNCC3)c(F)cc2c1=O | Active | Active | > 128 | > 128 | 7.24 | 128 (≈ 185 µM) | Active | 5.1 | 16 (≈ 23.1 µM) | > 128 | > 128 | Active | > 128 |
| CC(C)(C)OC(=O)N1CCN(c2cc3c(cc2F)c(=O)c(C(=O)NNC(=O)[C@@H]2CC[C@@H]4CN2C(=O)N4OS(=O)(=O)[O-])cn3C2CC2)CC1.CCCC[N+](CCCC)(CCCC)CCCC |  |  | > 128 | > 128 |  | 8 |  |  | > 256 | > 128 | > 128 |  | > 128 |
| O=C(NNC(=O)[C@@H]1CC[C@@H]2CN1C(=O)N2OS(=O)(=O)O)c1cn(C2CC2)c2cc(N3CCNCC3)c(F)cc2c1=O | Active | Active | > 128 | 128 (≈ 216 µM) | 8.77 | 8 (≈ 13.5 µM) | Active | 4.27 | 16 (≈ 27 µM) | > 128 | > 128 | Active | > 128 |
| O=C(CNC(=O)[C@@H]1CC[C@@H]2CN1C(=O)N2OS(=O)(=O)O)NNC(=O)c1cn(C2CC2)c2cc(N3CCNCC3)c(F)cc2c1=O | Active | Active | > 128 | > 128 | 6.65 | > 256 | Active | 5.74 | 8 (≈ 12.3 µM) | > 128 | > 128 | Active | > 128 |
| NC(=O)[C@@H]1CC[C@@H]2CN1C(=O)N2OS(=O)(=O)O [AVIBACTAM] | Active | Active | 8 (≈ 30.2 µM) | > 128 | 6.85 | 256 (≈ 965 µM) | Active | 3.87 | 8 (≈ 30.2 µM) | 32 (≈ 121 µM) | > 128 | Active | 8 (≈ 30.2 µM) |
| CC[C@H](C)C(NC(=O)[C@@H]1CC[C@@H]2CN1C(=O)N2OS(=O)(=O)O)C(=O)NNC(=O)c1cn(C2CC2)c2cc(N3CCNCC3)c(F)cc2c1=O (stereo partly drawn) |  |  | > 128 | > 128 |  | > 256 |  |  | 32 (≈ 45.3 µM) | > 128 | > 128 |  | > 128 |
| O=C(O)c1cn(C2CC2)c2cc(N3CCNCC3)c(F)cc2c1=O [CIPROFLOXACIN] |  |  | 128 (≈ 386 µM) | 0.5 (≈ 1.51 µM) |  |  |  |  |  | > 128 | > 128 |  | > 128 |
| C[C@H](NC(=O)[C@@H]1CC[C@@H]2CN1C(=O)N2OS(=O)(=O)O)C(=O)NNC(=O)c1cn(C2CC2)c2cc(N3CCNCC3)c(F)cc2c1=O |  |  | > 128 | 32 (≈ 48.1 µM) |  | 16 (≈ 24.1 µM) |  |  | 1 (≈ 1.5 µM) | > 128 | > 128 |  | > 128 |
| O=C(CCCCCNC(=O)[C@@H]1CC[C@@H]2CN1C(=O)N2OS(=O)(=O)O)NNC(=O)c1cn(C2CC2)c2cc(N3CCNCC3)c(F)cc2c1=O |  |  | > 32 | > 64 |  | > 64 |  |  | 4 (≈ 5.66 µM) | > 32 | > 64 |  | > 64 |
| O=C(NNC(=O)[C@@H]1CCCN1C(=O)[C@@H]1CC[C@@H]2CN1C(=O)N2OS(=O)(=O)O)c1cn(C2CC2)c2cc(N3CCNCC3)c(F)cc2c1=O |  |  | > 128 | > 128 |  | 128 (≈ 185 µM) |  |  | 8 (≈ 11.6 µM) | > 128 | > 128 |  | > 128 |
| COc1ccc(C[C@H](NC(=O)[C@@H]2CC[C@@H]3CN2C(=O)N3OS(=O)(=O)O)C(=O)NNC(=O)c2cn(C3CC3)c3cc(N4CCNCC4)c(F)cc3c2=O)cc1OC |  |  | > 64 | > 64 |  | > 64 |  |  | 32 (≈ 40 µM) | > 64 | > 64 |  | > 64 |
| O=C(NNC(=O)[C@H](Cc1ccccc1)NC(=O)[C@@H]1CC[C@@H]2CN1C(=O)N2OS(=O)(=O)O)c1cn(C2CC2)c2cc(N3CCNCC3)c(F)cc2c1=O |  |  | > 128 | > 128 |  | 8 (≈ 10.8 µM) |  |  | 16 (≈ 21.6 µM) | > 128 | > 128 |  | > 128 |
| O=C(CCCNC(=O)[C@@H]1CC[C@@H]2CN1C(=O)N2OS(=O)(=O)O)NNC(=O)c1cn(C2CC2)c2cc(N3CCNCC3)c(F)cc2c1=O |  |  | > 32 | > 64 |  | > 64 |  |  | 8 (≈ 11.8 µM) | > 32 | > 64 |  | > 64 |
